8 test systems from the supplement of paper PMC6045584 can be followed below.

± gives the standard deviation of the averaged measurements.

Compound in assay [1]: COc1cc2ncnc(Nc3ccc(F)c(Cl)c3)c2cc1NC(=O)/C=C/CN1CCCCC1
Kind of assay: surviving fraction relative to DMSO-only wells; higher = less growth inhibition. The settings on record: exposure time: 5 days. The gist of the method:
(§1)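 Log-phase tumour cell lines, 250–500 cells per well in 384-well plates, received inhibitors at 0.5, 1, 5, 10, 50, 100, 500 and 1000 nM continuously for five days, starting 24 hours after seeding. Viability was quantified with CellTiter-Glo luminescence and normalised to the median of DMSO-only wells to give surviving fraction. Three screens were run per line, and a line stayed in only with replicate Pearson r >0.7 and median Z' >0.3.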

Compound in assay [2]: Oc1nc(-c2ccc(C(F)(F)F)cc2)nc2c1CSCC2 [XAV-939]
Described as above. The settings on record: exposure time: 5 days. The gist of the method:
as §1

For the test system S68 BREAST, the surviving fraction in assay [1] (0.5 nM) came to 0.768 ± 0.15; in assay [1] (1 nM), 1.01 ± 0.15; in assay [1] (5 nM), 1.03 ± 0.27; in assay [1] (10 nM) it was 0.764 ± 0.12; in assay [1] (50 nM), 0.701 ± 0.085; in assay [1] (100 nM), 0.667 ± 0.14. Moreover, the surviving fraction in assay [1] (500 nM) came out at 0.603 ± 0.033; in assay [1] (1000 nM) it was 0.256 ± 0.024; in assay [2] (0.5 nM), 0.722 ± 0.22; in assay [2] (1 nM) it was 0.763 ± 0.12; in assay [2] (5 nM), 1.14 ± 0.25; in assay [2] (10 nM), 0.983 ± 0.32. For the same test system, the surviving fraction was 1.19 ± 0.13 in assay [2] (50 nM), 1.12 ± 0.22 in assay [2] (100 nM), 0.829 ± 0.05 in assay [2] (500 nM) and 0.767 ± 0.076 in assay [2] (1000 nM).
CHLA90 AUTONOMIC GANGLIA: the surviving fraction in assay [1] (0.5 nM) came to 1 ± 0.048; in assay [1] (1 nM) it was 0.982 ± 0.085; in assay [1] (5 nM) it was 0.853 ± 0.049; in assay [1] (10 nM) it was 0.834 ± 0.016; in assay [1] (50 nM), 0.818 ± 0.023; in assay [1] (100 nM), 0.769 ± 0.048. In addition, the surviving fraction in assay [1] (500 nM) came out at 0.781 ± 0.04; in assay [1] (1000 nM), 0.596 ± 0.022; in assay [2] (0.5 nM), 1.01 ± 0.071; in assay [2] (1 nM) it was 1.04 ± 0.051; in assay [2] (5 nM), 0.989 ± 0.031; in assay [2] (10 nM), 0.997 ± 0.045. Further, the surviving fraction in assay [2] (50 nM) turned out to be 0.975 ± 0.019; in assay [2] (100 nM), 0.948 ± 0.067; in assay [2] (500 nM) it was 0.987 ± 0.072; in assay [2] (1000 nM), 0.933 ± 0.022.
Regarding CASKI CERVIX, the surviving fraction in assay [1] (0.5 nM) came to 0.801 ± 0.054; in assay [1] (1 nM), 0.762 ± 0.015; in assay [1] (5 nM), 0.468 ± 0.0036; in assay [1] (10 nM), 0.336 ± 0.024; in assay [1] (50 nM), 0.285 ± 0.025; in assay [1] (100 nM), 0.2623 ± 0.0023. Also, the surviving fraction in assay [1] (500 nM) came to 0.0627 ± 0.013; in assay [1] (1000 nM), 0.024 ± 0.002; in assay [2] (0.5 nM), 0.918 ± 0.017; in assay [2] (1 nM), 0.944 ± 0.037; in assay [2] (5 nM), 0.975 ± 0.011; in assay [2] (10 nM) it was 0.997 ± 0.013. Further, the surviving fraction was 1.03 ± 0.028 in assay [2] (50 nM), 1.06 ± 0.03 in assay [2] (100 nM), 0.935 ± 0.037 in assay [2] (500 nM) and 0.965 ± 0.051 in assay [2] (1000 nM).
Regarding HT1080 SOFT TISSUE, the surviving fraction was found to be 1.02 ± 0.015 in assay [1] (0.5 nM); 1.01 ± 0.023 in assay [1] (1 nM); 0.964 ± 0.0098 in assay [1] (5 nM); 0.984 ± 0.026 in assay [1] (10 nM); 1.03 ± 0.015 in assay [1] (50 nM); 0.981 ± 0.034 in assay [1] (100 nM). Besides, the surviving fraction was determined as 0.9 ± 0.04 in assay [1] (500 nM); 0.751 ± 0.045 in assay [1] (1000 nM); 1.05 ± 0.018 in assay [2] (0.5 nM); 1.04 ± 0.05 in assay [2] (1 nM); 1.03 ± 0.024 in assay [2] (5 nM); 1.02 ± 0.023 in assay [2] (10 nM). Besides, the surviving fraction was 0.971 ± 0.0036 in assay [2] (50 nM), 0.872 ± 0.0099 in assay [2] (100 nM), 0.579 ± 0.0091 in assay [2] (500 nM) and 0.476 ± 0.0083 in assay [2] (1000 nM).
KPD BONE: the surviving fraction in assay [1] (0.5 nM) worked out at 1.03 ± 0.068; in assay [1] (1 nM), 1.05 ± 0.04; in assay [1] (5 nM) it was 1.04 ± 0.037; in assay [1] (10 nM), 1.04 ± 0.015; in assay [1] (50 nM), 1.05 ± 0.079; in assay [1] (100 nM), 1.04 ± 0.019. Moreover, the surviving fraction in assay [1] (500 nM) came to 0.718 ± 0.034; in assay [1] (1000 nM), 0.493 ± 0.025; in assay [2] (0.5 nM), 0.937 ± 0.07; in assay [2] (1 nM) it was 0.981 ± 0.061; in assay [2] (5 nM) it was 0.999 ± 0.048; in assay [2] (10 nM) it was 0.995 ± 0.043. Besides, the surviving fraction was 0.992 ± 0.058 in assay [2] (50 nM), 0.926 ± 0.035 in assay [2] (100 nM), 0.883 ± 0.035 in assay [2] (500 nM) and 0.828 ± 0.061 in assay [2] (1000 nM).
Regarding HCC1954 BREAST, the surviving fraction stood at 1.11 ± 0.075 in assay [1] (0.5 nM); 0.808 ± 0.064 in assay [1] (1 nM); 0.756 ± 0.028 in assay [1] (5 nM); 0.722 ± 0.084 in assay [1] (10 nM); 0.508 ± 0.0074 in assay [1] (50 nM); 0.471 ± 0.0092 in assay [1] (100 nM). Moreover, the surviving fraction in assay [1] (500 nM) amounted to 0.283 ± 0.013; in assay [1] (1000 nM), 0.155 ± 0.018; in assay [2] (0.5 nM), 0.826 ± 0.073; in assay [2] (1 nM), 1.02 ± 0.041; in assay [2] (5 nM), 1.15 ± 0.24; in assay [2] (10 nM), 1.06 ± 0.042. The surviving fraction amounted to 1.111 ± 0.0085 in assay [2] (50 nM), 0.967 ± 0.088 in assay [2] (100 nM), 0.637 ± 0.0081 in assay [2] (500 nM) and 0.723 ± 0.057 in assay [2] (1000 nM).
As to MDAMB468 BREAST, the surviving fraction in assay [1] (0.5 nM) is 0.997 ± 0.094; in assay [1] (1 nM), 1.04 ± 0.033; in assay [1] (5 nM), 0.8783 ± 0.0035; in assay [1] (10 nM), 0.854 ± 0.063; in assay [1] (50 nM) it was 0.626 ± 0.013; in assay [1] (100 nM) it was 0.676 ± 0.035. In addition, the surviving fraction in assay [1] (500 nM) came to 0.438 ± 0.016; in assay [1] (1000 nM) it was 0.286 ± 0.014; in assay [2] (0.5 nM), 1.08 ± 0.041; in assay [2] (1 nM), 1.04 ± 0.061; in assay [2] (5 nM), 1.04 ± 0.039; in assay [2] (10 nM) it was 1.08 ± 0.038. Further, the surviving fraction is 1.09 ± 0.014 in assay [2] (50 nM), 1.05 ± 0.033 in assay [2] (100 nM), 0.988 ± 0.072 in assay [2] (500 nM) and 0.964 ± 0.043 in assay [2] (1000 nM).
Take SNU475 LIVER: the surviving fraction was 0.967 ± 0.017 in assay [1] (0.5 nM); 0.96 ± 0.017 in assay [1] (1 nM); 0.92 ± 0.037 in assay [1] (5 nM); 0.927 ± 0.086 in assay [1] (10 nM); 0.897 ± 0.022 in assay [1] (50 nM); 0.895 ± 0.05 in assay [1] (100 nM). For the same test system, the surviving fraction in assay [1] (500 nM) was 0.698 ± 0.038; in assay [1] (1000 nM), 0.481 ± 0.028; in assay [2] (0.5 nM) it was 0.936 ± 0.035; in assay [2] (1 nM) it was 0.976 ± 0.033; in assay [2] (5 nM), 0.891 ± 0.18; in assay [2] (10 nM), 1.02 ± 0.018. For the same test system, the surviving fraction in assay [2] (50 nM) came out at 0.952 ± 0.011; in assay [2] (100 nM), 0.965 ± 0.033; in assay [2] (500 nM), 0.713 ± 0.068; in assay [2] (1000 nM), 0.59 ± 0.027.
